Laboratory results from patent publication US10494364B2, “Cathepsin K inhibitors and application thereof” (SUNSHINE LAKE PHARMA CO., LTD., priority 2015, dated 2019).
Where two headings read alike, the source gives them in different places.

How the values were obtained:
human cathepsin K = target: T1, human cathepsin K (Homo sapiens, UniProt P43235); test: Assay of cathepsin K inhibitory activity in vitro; assay type: biochemical; conditions: IC50 against human cathepsin K; substrate Z-Phe-Arg-AMC 10 μM; 25° C.; read-out: Cat-K
T1 sequence (P43235 115-329): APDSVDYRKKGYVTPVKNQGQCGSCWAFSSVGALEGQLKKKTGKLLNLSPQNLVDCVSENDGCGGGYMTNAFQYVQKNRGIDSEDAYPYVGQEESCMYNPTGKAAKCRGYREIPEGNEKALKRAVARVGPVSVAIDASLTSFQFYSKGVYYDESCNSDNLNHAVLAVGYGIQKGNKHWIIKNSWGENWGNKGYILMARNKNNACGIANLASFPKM
Method: Assay Method of Cathepsin K Inhibitory Activity In Vitro
Using 45000-fold diluted cathepsin K solution and 10 μM Z-Phe-Arg-AMC as substrate, the test compound and cathepsin K solution were incubated at 25° C. for 15 min in a 15 μL reaction system according to the optimized experimental condition.

human cathepsin B = human cathepsin B (Homo sapiens, UniProt P07858); test: Assay of cathepsin B inhibitory activity in vitro; assay type: biochemical; conditions: IC50 against human cathepsin B; substrate Z-Phe-Arg-AMC 10 μM; 25° C.; read-out: Cat-B
Method: Assay Method of Cathepsin B Inhibitory Activity In Vitro
0.01 ng/μL was the final concentration of Cathepsin B in the enzyme reaction, and Z-Phe-Arg-AMC with the final concentration of 10 μM was added into the reaction system as substrate, in the reaction system the test compound and enzyme had been incubated at 25° C. for 15 min.

human cathepsin L = human cathepsin L (Homo sapiens, UniProt P07711); test: Assay of cathepsin L inhibitory activity in vitro; assay type: biochemical; conditions: IC50 against human cathepsin L; substrate Z-Phe-Arg-AMC 10 μM; 25° C.; read-out: Cat-L
Method: Assay Method of Cathepsin L Inhibitory Activity In Vitro
0.01 ng/μL was the final concentration of Cathepsin L in the enzyme reaction, and Z-Phe-Arg-AMC with the final concentration of 10 μM was added into the reaction system as substrate, in the reaction system the test compound and enzyme had been incubated at 25° C. for 15 min.

[1] = Pharmacokinetic test in SD rats (iv and oral gavage), plasma by LC/MS/MS; assay type: in vivo; conditions: rat, male SD rats; for AUC(0-inf): read-out: AUCINF h * ng/ml; for AUC(0-t): read-out: AUClast h * ng/ml; for half-life: read-out: T1/2 h (converted); for Vd: read-out: Vss; for bioavailability: po 5 mg/kg vs iv 1 mg/kg
Method: Healthy adult male SD rats were divided into groups with administration of compound by intravenous injection and oral gavage.
2. Preparation of the Test Compound Solution:
A certain amount of the test compound was weighed, and then mixed with 5% DMSO, 10% Kolliphor HS15 and 85% Saline to prepare a clarified solution.
3. Administration and Sample Collection:
All groups were fasted for 12 hours before administering, free drinking, and fed at 3 hours after administration. Each group was administered with test compound by vein intravenous (iv, 1 mg/kg) in the hind foot and oral gavage (po, 5 mg/kg) independently. The blood samples were collected from tail vein at the time point of 0 h, 0.083 h, 0.25 h, 0.5 h, 1 h, 2 h, 4 h, 6 h, 8 h and 24 h after administration and the amount of blood sample collected at each time point was about 200-400 μL. The blood samples collected at each time point were independently placed in K2EDTA anticoagulation tube and preserved in the incubator containing ice packs. The plasma of each blood sample above was separated by centrifugation at 4600 r/min at 4° C. for 5 min in 15 minutes after collecting. The plasma samples were preserved at −80° C. for measuring.
The content of the compound in plasma of rat after administration was determined by LC/MS/MS method.

human cathepsin S = human cathepsin S (Homo sapiens, UniProt P25774); test: Assay of cathepsin S inhibitory activity in vitro; assay type: biochemical; conditions: IC50 against human cathepsin S; substrate Z-VVR-AMC 20 μM; 25° C.; read-out: Cat-S
Method: Assay Method of Cathepsin S Inhibitory Activity In Vitro
0.25 ng/L was the final concentration of Cathepsin S in the enzyme reaction, and Z-VVR-AMC with the final concentration of 20 μM was added into the reaction system as substrate, in the reaction system the test compound and enzyme had been incubated at 25° C. for 15 min.

Chain of human cathepsin L (P07711 114-333): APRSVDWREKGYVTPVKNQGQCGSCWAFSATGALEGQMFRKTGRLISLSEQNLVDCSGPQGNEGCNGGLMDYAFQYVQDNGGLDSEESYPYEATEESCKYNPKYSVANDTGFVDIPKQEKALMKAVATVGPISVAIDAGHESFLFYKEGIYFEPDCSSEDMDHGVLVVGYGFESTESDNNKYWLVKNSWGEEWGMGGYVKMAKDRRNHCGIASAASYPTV
Chain of human cathepsin S (P25774 115-331): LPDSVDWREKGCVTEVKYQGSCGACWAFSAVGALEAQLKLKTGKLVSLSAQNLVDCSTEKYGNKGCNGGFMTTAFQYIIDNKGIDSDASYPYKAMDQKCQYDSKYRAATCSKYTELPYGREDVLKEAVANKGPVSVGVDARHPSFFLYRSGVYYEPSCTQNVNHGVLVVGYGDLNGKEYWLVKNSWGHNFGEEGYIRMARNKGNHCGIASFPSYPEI

| IC50 (human cathepsin K) | IC50 (human cathepsin B) | IC50 (human cathepsin L) | Cmax ([1]; iv 1 mg/kg) | Tmax ([1]; iv 1 mg/kg) | clearance ([1]; iv 1 mg/kg) | AUC(0-inf) ([1]; iv 1 mg/kg) | AUC(0-t) ([1]; iv 1 mg/kg) | half-life ([1]; iv 1 mg/kg) | Vd ([1]; iv 1 mg/kg) | Cmax ([1]; po 5 mg/kg) | Tmax ([1]; po 5 mg/kg) | bioavailability [1] | AUC(0-inf) ([1]; po 5 mg/kg) | AUC(0-t) ([1]; po 5 mg/kg) | half-life ([1]; po 5 mg/kg) | IC50 (human cathepsin S) | SMILES |
| --- | --- | --- | --- | --- | --- | --- | --- | --- | --- | --- | --- | --- | --- | --- | --- | --- | --- |
| 0.0018 µM | 1.4 µM | > 10 µM | 1110 ng/mL | 0.08 h | 1.8 mL/min/kg | 9230 ng·h/mL | 8150 ng·h/mL | 7.84 h | 1.09 L/kg | 1890 ng/mL | 4.67 h | 60.6% | 28400 ng·h/mL | 25100 ng·h/mL | 6.14 h | 2.5 µM | N#CC1(NC(=O)C2(NC(=O)c3cc4ccc(-c5ccc(-n6cncn6)cc5)cc4o3)CCC(F)(F)CC2)CC1 [Example 12, 6-(4-(1H-1,2,4-triazol-1-yl)phenyl)-N-(1-((1-cyanocyclopropyl)carbamoyl)-4,4-difluorocyclohexyl)benzofuran-2-carboxamide] |
| 0.0022 µM | 0.806 µM | > 10 µM | 500 ng/mL | 0.083 h | 5.14 mL/min/kg | 3320 ng·h/mL | 3210 ng·h/mL | 4.72 h | 1.92 L/kg | 1380 ng/mL | 3.33 h | 98.6% | 19900 ng·h/mL | 18600 ng·h/mL | 5.65 h | 2.8 µM | N#CC1(NC(=O)C2(NC(=O)c3cc4ccc(-c5ccc(-n6ccnn6)cc5)cc4o3)CCC(F)(F)CC2)CC1 [Example 18, 6-(4-(1H-1,2,3-triazol-1-yl)phenyl)-N-(1-((1-cyanocyclopropyl)carbamoyl)-4,4-difluorocyclohexyl)benzofuran-2-carboxamide] |
| 0.00069 µM | 0.44 µM | > 10 µM | 382 ng/mL | 0.78 h | 4.13 mL/min/kg | 4190 ng·h/mL | 3800 ng·h/mL | 7.1 h | 2.27 L/kg | 390 ng/mL | 4 h | 72.1% | 15200 ng·h/mL | 14300 ng·h/mL | 5.84 h | 1.34 µM | Cc1cc(-c2ccc3cc(C(=O)NC4(C(=O)NC5(C#N)CC5)CCC(F)(F)CC4)oc3c2)ccc1-n1cncn1 [Example 43, N-(1-((1-cyanocyclopropyl)carbamoyl)-4,4-difluorocyclohexyl)-6-(3-methyl-4-(1H-1,2,4-triazol-1-yl)phenyl)benzofuran-2-carboxamide] |
| 0.0014 µM | 2.5 µM | > 10 µM | 798 ng/mL | 0.083 h | 2.91 mL/min/kg | 5740 ng·h/mL | 5470 ng·h/mL | 5.9 h | 1.2 L/kg | 2230 ng/mL | 2.67 h | 75.6% | 21700 ng·h/mL | 21100 ng·h/mL | 4.66 h | > 10 µM | N#CC1(NC(=O)C2(NC(=O)c3cc4ccc(-c5ccc(-n6cncn6)c(OC(F)F)c5)cc4o3)CCC(F)(F)CC2)CC1 [Example 53, N-(1-((1-cyanocyclopropyl)carbamoyl)-4,4-difluorocyclohexyl)-6-(3-(difluoromethoxy)-4-(1H-1,2,4-triazol-1-yl)phenyl)benzofuran-2-carboxamide] |
| 0.0013 µM | 5 µM | > 10 µM | 1240 ng/mL | 0.33 h | 1.73 mL/min/kg | 9700 ng·h/mL | 9280 ng·h/mL | 5.59 h | 0.69 L/kg | 2260 ng/mL | 3 h | 46.9% | 22700 ng·h/mL | 21900 ng·h/mL | 5.06 h | > 10 µM | CCOc1cc(-c2ccc3cc(C(=O)NC4(C(=O)NC5(C#N)CC5)CCC(F)(F)CC4)oc3c2)ccc1-n1cncn1 [Example 54, N-(1-((1-cyanocyclopropyl)carbamoyl)-4,4-difluorocyclohexyl)-6-(3-ethoxy-4-(1H-1,2,4-triazol-1-yl)phenyl)benzofuran-2-carboxamide] |
